The values that follow come from patent US20040121954A1, “Poly(dipeptide) as a drug carrier” (priority 1999, published 2004).

SMILES strings stand for the structures.

The test system of this assay is PC3 (prostate); KB (nasopharyngeal); MDA MB 231 (breast). In words: In vitro cell culture assay (MTT), cell inhibition in three human tumor cell lines. Conditions: 72 hours.

Turning to `CC(=O)O[C@H]1C(=O)[C@@]2(C)[C@H]([C@H](OC(=O)c3ccccc3)[C@]3(O)C[C@H](OC(=O)[C@H](O)[C@@H](NC(=O)c4ccccc4)c4ccccc4)C(C)=C1C3(C)C)[C@]1(OC(C)=O)CO[C@@H]1C[C@@H]2O` [paclitaxel], the “cell inhibition at lower concentrations” value is reported as “more pronounced”.
